Columns and labels:
MRSA = assay: MIC50 / MIC and MBC testing; assay type: cell-based, methicillin-resistant Staphylococcus aureus; details: Table 35 (Example 25); 1% ECMO or 1% ECMT, 0.05% CBD pure isolate
Text: (§1) The MIC50 test evaluates the lowest concentration of a test substance that prevents 50% of the growth of bacteria or fungi. This is a measure of the antibacterial or anti-fungal activity of the test sample. MBC is the lowest concentration of an antibacterial agent required to kill a bacterium. Similarly, Minimum fungicidal concentration (MFC) is the lowest concentration of an antifungal agent required to kill a fungus or a yeast.
(§2) The disclosed topical compositions may be tested for MIC50 and MBC using publicly available testing criteria. For example, test samples of the desired active compound can be prepared and serially diluted to give 11 or more different concentrations covering, for example, a 1000-fold range. For example, the test samples may include 50%-0.1% of a stock test sample (e.g., stock samples disclosed in Table 1) that are combined with select bacteria and fungi and incubated over a prescribed period of time. The MIC50 is useful to determine the lowest concentration of each test sample (mixture of active materials) that inhibits 50% of the growth of the microbe as determined by measurement of OD650 nm using a Versa Max 96 well plate reader. […]
(§3) Additional data Minimum Inhibitory Concentration (MIC) data on East Cape manuka oil and β-triketones provide further context. […] MIC data is measured at the first sign of bacterial growth inhibition. […]

S. pyogenes = assay: MIC50 / MIC and MBC testing; assay type: cell-based, Streptococcus pyogenes; details: Table 35 (Example 25); 1% ECMO or 1% ECMT, 0.05% CBD pure isolate
Text: as §1, §2, §3

[1] = test system: gram positive bacteria S aureus, MRSA, S pyogenes, C. acnes; assay: Average MIC over gram positive bacteria (Example 25); assay type: cell-based
Text: Cannabidiol (CBD) content in CBD oil can be highly variable. For this reason, pure CBD isolate was used in these examples. 1% ECMT or 1% ECMO were used in these examples. Since CBD oil contains 5-10% CBD, a concentration of 0.05% CBD pure isolate (equating to 0.5% to 1% whole CBD oil) was used in these tests.
The average MIC of CBD alone is 0.2 times that of ECMO-314. The average MIC of CBD alone is 0.1 times that of ECMT-314. […] The average MIC of ECMT alone is 0.8 times that of ECMT-314.

C. acnes = assay: MIC50 / MIC and MBC testing; assay type: cell-based, Cutibacterium acnes
Text: as §1
The disclosed topical compositions may be tested for MIC50 and MBC using publicly available testing criteria. For example, test samples of the desired active compound can be prepared and serially diluted to give 11 or more different concentrations covering, for example, a 1000-fold range. For example, the test samples may include 50%-0.1% of a stock test sample (e.g., stock samples disclosed in Table 1) that are combined with select bacteria and fungi and incubated over a prescribed period of time. The MIC50 is useful to determine the lowest concentration of each test sample (mixture of active materials) that inhibits 50% of the growth of the microbe as determined by measurement of OD650 nm using a Versa Max 96 well plate reader. Measurement of cell concentration can be made at several time points.
Additional data Minimum Inhibitory Concentration (MIC) data on East Cape manuka oil and β-triketones provide further context. (Source: Plant & Food). MIC data is measured at the first sign of bacterial growth inhibition. These figures can be expected to be lower than MIC50 data, though this is not always the case. Published MIC data on palmarosa oil is also included for further context, In Vitro Antimicrobial and Antioxidant Activities of Some Cymbopogon Species in Essential Oil-Bearing Grasses—The genus Cymbopogon, Khunkitti, W. (2010) Chapter 6, Edited by A. Akhila., Medicinal and Aromatic Plants—Industrial Profiles, CRC Press Taylor & Francis Group. Example stock sample solutions of active mixtures that show promising results and are suitable for MIC50 and MBC testing are listed in Table 7. […]

S. aureus = assay: MIC50 / MIC and MBC testing; assay type: cell-based, Staphylococcus aureus; details: Table 35 (Example 25); 1% ECMO or 1% ECMT, 0.05% CBD pure isolate
Text: as §1, §2, §3

Question: Which MIC (MRSA) does the source give for C=C(C)[C@@H]1CCC(C)=C[C@H]1c1c(O)cc(CCCCC)cc1O [0.05% CBD isolate, cannabidiol] here?
Answer: The MIC was 0.0125 % v/v.

Question: What about the MIC (S. pyogenes) of the same molecule?
Answer: The MIC was 0.002 % v/v.

Question: And the “average MIC of ingredient alone, times that of ECMO-314” value [1]?
Answer: The value was 0.2 times.

Question: And the “average MIC of ingredient alone, times that of ECMT-314” value [1]?
Answer: Its value is 0.1 times.

Question: And the “AVERAGE MIC” value ([1]; Table 35 (Example 25))?
Answer: Its value is 0.018 % v/v.

Question: And the “MIC of ingredient alone, times that of ECMT-314” value (C. acnes; C. acnes considered on its own)?
Answer: The value was 0.95 times.

Question: What about the “MIC50, expressed as CBD” value (C. acnes; Table 24, studies with manuka oil β-triketones and CBD) of the same molecule?
Answer: Its value is 0.006% CBD (v/v) %.

Question: And the MIC (C. acnes; Table 35 (Example 25), 1% ECMO or 1% ECMT, 0.05% CBD pure isolate)?
Answer: The MIC was 0.006 % v/v.

Question: What about the MIC (S. aureus) of the same molecule?
Answer: The MIC was 0.05 % v/v.

— patent US20230372425A1, “TOPICAL COMPOSITIONS CONTAINING MANUKA OIL AND PALMAROSA OIL FOR TREATING SKIN CONDITIONS” (Manuka Therapeutics Ltd., priority 2021, published 2023)
